Source: EP0840781B1, “METHODS AND DEVICES FOR THE REMOVAL OF PSORALENS FROM BLOOD PRODUCTS” (Cerus Corporation, priority 1995, dated 1996)
Like-named read-outs stand apart in the source and are kept apart here.

Tested on: Salmonella typhimurium tester strains TA97a, TA98, TA100, TA102, TA1537 and TA1538
Settings: for revertant colonies, TA1538 +S9 (Table 18 (A)): background 123; for revertant colonies, TA1538 -S9 (Table 18 (A)): background 126; for revertant colonies, TA1537 -S9 (Table 18 (A)): background 20; for revertant colonies, TA1537 +S9 (Table 18 (A)): background 25
How it was run: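 Ames pre-incubation test in S. typhimurium TA97a, TA98, TA1537, TA1538 (frameshift) and TA100, TA102 (base-substitution), with or without 10% Aroclor 1254-induced rat liver S-9. Test solutions at 0–500 µg/mL pre-incubated 20 min at 37 °C, plated in histidine/biotin top agar; revertant colonies counted after 44 h at 37 °C.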

[1] = two-fold or greater increase in revertants above background and dose dependent response

Structure (SMILES): Cc1oc2c(C)c3oc(=O)cc(C)c3cc2c1COCCN [Compound 2, 4'-(4-amino-2-oxa)butyl-4,5',8-trimethylpsoralen]
- revertant colonies, TA100 +S9 (5 µg/plate): -18
- revertant colonies, TA100 -S9 (5 µg/plate): 103
- revertant colonies, TA1538 +S9 (5 µg/plate): 2
- revertant colonies, TA1538 -S9 (5 µg/plate): -8
- revertant colonies, TA98 +S9 (10 µg/plate): 24
- revertant colonies, TA98 -S9 (10 µg/plate): 28
- revertant colonies, TA100 +S9 (10 µg/plate): 1
- revertant colonies, TA100 -S9 (10 µg/plate): 46
- revertant colonies, TA1537 +S9 (10 µg/plate): 5
- revertant colonies, TA1537 -S9 (10 µg/plate): 36
- revertant colonies, TA1538 +S9 (10 µg/plate): 4
- revertant colonies, TA1538 -S9 (10 µg/plate): -13
- revertant colonies, TA98 +S9 (50 µg/plate): 35
- revertant colonies, TA98 -S9 (50 µg/plate): 52
- revertant colonies, TA100 +S9 (50 µg/plate): 115
- revertant colonies, TA100 -S9 (50 µg/plate): 182
- revertant colonies, TA1537 +S9 (50 µg/plate): 40
- revertant colonies, TA1537 -S9 (50 µg/plate): 282
- revertant colonies, TA98 +S9 (100 µg/plate): 53
- revertant colonies, TA98 -S9 (100 µg/plate): 39
- revertant colonies, TA100 +S9 (100 µg/plate): 96
- revertant colonies, TA100 -S9 (100 µg/plate): 121
- revertant colonies, TA1537 +S9 (100 µg/plate): 88
- revertant colonies, TA1537 -S9 (100 µg/plate): 258
- revertant colonies, TA98 +S9 (250 µg/plate): 69
- revertant colonies, TA98 -S9 (250 µg/plate): 29
- revertant colonies, TA1537 +S9 (250 µg/plate): 744
- revertant colonies, TA1537 -S9 (250 µg/plate): 176
- revertant colonies, TA98 +S9 (500 µg/plate): 63
- revertant colonies, TA98 -S9 (500 µg/plate): 6
- revertant colonies, TA1537 +S9 (500 µg/plate): 395
- revertant colonies, TA1537 -S9 (500 µg/plate): 114
- frameshift mutagenicity (Ames, summary) [1]: weak frameshift mutagenicity in the presence of S9 in TA98 and TA1537

Structure (SMILES): Cc1oc2c(C)c3oc(=O)cc(C)c3cc2c1CNCCCCN [Compound 6, 4'-(6-amino-2-aza)hexyl4,5',8-trimethylpsoralen]
- revertant colonies, TA1538 +S9 (5 µg/plate): 0
- revertant colonies, TA1538 -S9 (5 µg/plate): -5
- revertant colonies, TA1538 +S9 (Table 18 (A)) (5 µg/plate): 12
- revertant colonies, TA1538 -S9 (Table 18 (A)) (5 µg/plate): -32
- revertant colonies, TA1537 +S9 (10 µg/plate): -1
- revertant colonies, TA1537 -S9 (10 µg/plate): 141
- revertant colonies, TA1538 +S9 (10 µg/plate): 8
- revertant colonies, TA1538 -S9 (10 µg/plate): -2
- revertant colonies, TA1537 -S9 (Table 18 (A)) (10 µg/plate): 12
- revertant colonies, TA1537 +S9 (Table 18 (A)) (10 µg/plate): -5
- revertant colonies, TA1538 +S9 (Table 18 (A)) (10 µg/plate): -5
- revertant colonies, TA1538 -S9 (Table 18 (A)) (10 µg/plate): 3
- revertant colonies, TA1537 +S9 (50 µg/plate): 17
- revertant colonies, TA1537 -S9 (50 µg/plate): 2010
- revertant colonies, TA1537 -S9 (Table 18 (A)) (50 µg/plate): 12
- revertant colonies, TA1537 +S9 (Table 18 (A)) (50 µg/plate): 2
- revertant colonies, TA1538 +S9 (Table 18 (A)) (50 µg/plate): 24
- revertant colonies, TA1538 -S9 (Table 18 (A)) (50 µg/plate): 2
- revertant colonies, TA1537 +S9 (100 µg/plate): 35
- revertant colonies, TA1537 -S9 (100 µg/plate): 795
- revertant colonies, TA1537 -S9 (Table 18 (A)) (100 µg/plate): 22
- revertant colonies, TA1537 +S9 (Table 18 (A)) (100 µg/plate): 20
- revertant colonies, TA1538 +S9 (Table 18 (A)) (100 µg/plate): -2
- revertant colonies, TA1538 -S9 (Table 18 (A)) (100 µg/plate): -18
- revertant colonies, TA1537 +S9 (250 µg/plate): 99
- revertant colonies, TA1537 -S9 (250 µg/plate): 228
- revertant colonies, TA1537 -S9 (Table 18 (A)) (250 µg/plate): 12
- revertant colonies, TA1537 +S9 (Table 18 (A)) (250 µg/plate): 40
- revertant colonies, TA1538 +S9 (Table 18 (A)) (250 µg/plate): -38
- revertant colonies, TA1537 +S9 (500 µg/plate): 369
- revertant colonies, TA1537 -S9 (500 µg/plate): 43
- revertant colonies, TA1537 -S9 (Table 18 (A)) (500 µg/plate): 9
- revertant colonies, TA1537 +S9 (Table 18 (A)) (500 µg/plate): 52
- frameshift mutagenicity (Ames, summary) [1]: a frameshift response in TA98 in the presence of S9 at concentrations of 250µg/plate and above. It also showed a response at 50µg/plate in TA1537 in the presence of S9
- base-substitution mutagenicity (Ames, summary) (two-fold or greater increase in revertants above background and dose dependent response, TA100, TA102): no base substitution mutagenicity
